Results: US20260015350A1, “AZAQUINAZOLINE PAN-KRAS INHIBITORS” (Mirati Therapeutics, Inc., priority 2022, published 2026)

Key:
KRas^G12D = molecular target: T1, KRas^G12D (Homo sapiens, UniProt P01116, G12D); experiment: KRas binding assay (TR-FRET tracer displacement), KRas G12D
T1 construct: Biotinylated KRas (corresponding to amino acids 1-169, produced at Accelegan Inc.); biotin (biotinylated); purchased Accelegan Inc

[1] = test system: KRas-mediated phosphorylation of ERK in H727 cells; experiment: Inhibition of KRas-mediated phosphorylation of ERK (Cisbio HTRF pERK), H727 cells; type: cell-based; details: Homo sapiens, NCI-H727, H727 cells; HTRF pERK
How it was run: (§1)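 6,000 cells/well; cpd 10 uM top, 3-fold x10, 0.8% DMSO final; 3 hr incubation; Min ctrl Trametinib 0.2 uM; lysis 40 min 4° C shaking; d2 + Cryptate Ab mix, 2 hr RT; HTRF read.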

[2] = test system: KRas-mediated phosphorylation of ERK in PSN1 cells; experiment: Inhibition of KRas-mediated phosphorylation of ERK (Cisbio HTRF pERK), PSN1 cells; type: cell-based; details: Homo sapiens
How it was run: (§2)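 Phospho-ERK is quantified by HTRF with the Advanced pERK kit. Cells go in at 6,000/well in RPMI plus 10% FBS overnight at 37° C. under 5% CO2, with a 4-hour covered room-temperature incubation ahead of the read.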

KRas^G12V = molecular target: T2, KRas^G12V (Homo sapiens, UniProt P01116, G12V); experiment: KRas binding assay (TR-FRET tracer displacement), KRas G12V
T2 construct: Biotinylated KRas (corresponding to amino acids 1-169, produced at Accelegan Inc.); biotin (biotinylated); purchased Accelegan Inc

[3] = test system: KRas-mediated phosphorylation of ERK in A549 cells; experiment: Inhibition of KRas-mediated phosphorylation of ERK (Cisbio HTRF pERK), A549 cells; type: cell-based; details: Homo sapiens, HTRF pERK
How it was run: (§3)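 Phosphorylated ERK was quantified by HTRF using d2-conjugate and Cryptate antibodies added to lysates for 2 hrs at room temperature.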

[4] = test system: KRas-mediated phosphorylation of ERK in HCT116 cells; experiment: Inhibition of KRas-mediated phosphorylation of ERK (Cisbio HTRF pERK), HCT116 cells; type: cell-based; details: Homo sapiens, HCT-116, HTRF pERK
How it was run: as §3

KRas^G12R = molecular target: T3, KRas^G12R (Homo sapiens, UniProt P01116, G12R); experiment: KRas binding assay (TR-FRET tracer displacement), KRas G12R
T3 construct: Biotinylated KRas (corresponding to amino acids 1-169, produced at Accelegan Inc.); biotin (biotinylated); purchased Accelegan Inc

[5] = test system: KRas-mediated phosphorylation of ERK in AsPC-1 cells; experiment: Inhibition of KRas-mediated phosphorylation of ERK (Cisbio HTRF pERK), AsPC-1 cells; type: cell-based; details: Homo sapiens, ASPC1, AsPC-1 cells; HTRF pERK
How it was run: as §1

[6] = test system: KRas-mediated phosphorylation of ERK in MKN1 cells; experiment: Inhibition of KRas-mediated phosphorylation of ERK (Cisbio HTRF pERK), MKN1 cells; type: cell-based; details: Homo sapiens, MKN-1
How it was run: as §2

[7] = test system: KRas-mediated phosphorylation of ERK in H460 cells; experiment: Inhibition of KRas-mediated phosphorylation of ERK (Cisbio HTRF pERK), H460 cells; type: cell-based; details: Homo sapiens, NCI-H460, HTRF pERK
How it was run: as §1

T3 sequence (P01116 1-169 isoform P01116-2 G12R): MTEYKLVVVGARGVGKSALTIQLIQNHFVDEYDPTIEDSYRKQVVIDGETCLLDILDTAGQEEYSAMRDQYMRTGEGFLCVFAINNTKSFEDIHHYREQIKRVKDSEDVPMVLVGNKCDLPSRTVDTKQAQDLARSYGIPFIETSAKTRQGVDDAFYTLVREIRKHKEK
T2 sequence (P01116 1-169 isoform P01116-2 G12V): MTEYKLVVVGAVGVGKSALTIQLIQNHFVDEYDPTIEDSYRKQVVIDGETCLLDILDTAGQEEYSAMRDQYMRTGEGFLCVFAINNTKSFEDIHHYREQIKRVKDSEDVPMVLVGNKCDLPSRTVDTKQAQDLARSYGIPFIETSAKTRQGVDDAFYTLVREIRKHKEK
T1 sequence (P01116 1-169 isoform P01116-2 G12D): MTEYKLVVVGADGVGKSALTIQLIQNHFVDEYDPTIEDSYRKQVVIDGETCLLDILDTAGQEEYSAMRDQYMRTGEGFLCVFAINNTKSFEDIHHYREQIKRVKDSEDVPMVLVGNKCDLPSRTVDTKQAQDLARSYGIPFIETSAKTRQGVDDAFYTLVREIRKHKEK

## CCc1c(F)ccc2cc(O)cc(-c3ncc4c(N5CCC6CCC(C6)C5)nc(OC[C@@]56CCCN5C[C@H](F)C6)nc4c3F)c12 (stereo partly drawn) [Example 550, 4-(4-(3-azabicyclo[4.2.1]nonan-3-yl)-8-fluoro-2-(((2R,7aS)-2-fluorotetrahydro-1H-pyrrolizin-7a(5H)-yl)methoxy)pyrido[4,3-d]pyrimidin-7-yl)-5-ethyl-6-fluoronaphthalen-2-ol]
KRas^G12D
  IC50: 47 nM
[1]
  IC50: 293 nM
[2]
  IC50: > 10000 nM
KRas^G12V
  IC50: 14 nM
[3]
  IC50: 423 nM
[4]
  IC50: 1370 nM
KRas^G12R
  IC50: 8 nM
[5]
  IC50: 590 nM
[6]
  IC50: 645 nM

## CCc1c(F)ccc2cc(O)cc(-c3ncc4c(N5CCCO[C@@H](CCO)C5)nc(OC[C@@]56CCCN5C[C@H](F)C6)nc4c3F)c12 [Example 578, 5-ethyl-6-fluoro-4-(8-fluoro-2-(((2R,7aS)-2-fluorohexahydro-1H-pyrrolizin-7a-yl)methoxy)-4-((S)-2-(2-hydroxyethyl)-1,4-oxazepan-4-yl)pyrido[4,3-d]pyrimidin-7-yl)naphthalen-2-ol]
KRas^G12D
  IC50: 5 nM
[1]
  IC50: 258 nM
[2]
  IC50: > 10000 nM
KRas^G12V
  IC50: 8 nM
[3]
  IC50: 467 nM
[7]
  IC50: 125 nM
KRas^G12R
  IC50: 2 nM
[5]
  IC50: 294 nM
[6]
  IC50: 1 nM

## CCc1c(F)ccc2cc(O)cc(-c3ncc4c(N5CCCOC(CCOC)C5)nc(OC[C@@]56CCCN5C[C@H](F)C6)nc4c3F)c12 (stereo partly drawn) [Example 601, 5-ethyl-6-fluoro-4-(8-fluoro-2-(((2R,7aS)-2-fluorohexahydro-1H-pyrrolizin-7a-yl)methoxy)-4-(2-(2-methoxyethyl)-1,4-oxazepan-4-yl)pyrido[4,3-d]pyrimidin-7-yl)naphthalen-2-ol]
KRas^G12D
  IC50: 14 nM
[1]
  IC50: 300 nM
[2]
  IC50: > 10000 nM
KRas^G12V
  IC50: 12 nM
[3]
  IC50: 344 nM
[7]
  IC50: 133 nM
KRas^G12R
  IC50: 7 nM
[5]
  IC50: 376 nM
[6]
  IC50: 26 nM

## CCc1c(F)ccc2cc(O)cc(-c3ncc4c(N5CCCC(N6CCCCS6(=O)=O)C5)nc(OC[C@@]56CCCN5C[C@H](F)C6)nc4c3F)c12 (stereo partly drawn) [Example 664, 2-(1-(7-(8-ethyl-7-fluoro-3-hydroxynaphthalen-1-yl)-8-fluoro-2-(((2R,7aS)-2-fluorohexahydro-1H-pyrrolizin-7a-yl)methoxy)pyrido[4,3-d]pyrimidin-4-yl)piperidin-3-yl)-1,2-thiazinane 1,1-dioxide]
KRas^G12D
  IC50: 7 nM
[1]
  IC50: 351 nM
[2]
  IC50: > 10000 nM
KRas^G12V
  IC50: 6 nM
[3]
  IC50: 152 nM
KRas^G12R
  IC50: 2 nM
[5]
  IC50: 567 nM
[6]
  IC50: 5 nM

## CCc1c(F)ccc2cc(O)cc(-c3ncc4c(N5CCCC6(CCS6)C5)nc(OC[C@@]56CCCN5C[C@H](F)C6)nc4c3F)c12 (stereo partly drawn) [Example 838, 5-ethyl-6-fluoro-4-(8-fluoro-2-(((2R,7aS)-2-fluorotetrahydro-1H-pyrrolizin-7a(5H)-yl)methoxy)-4-(1-thia-6-azaspiro[3.5]nonan-6-yl)pyrido[4,3-d]pyrimidin-7-yl)naphthalen-2-ol]
KRas^G12D
  IC50: 16 nM
[1]
  IC50: 1030 nM
[2]
  IC50: > 10000 nM
KRas^G12V
  IC50: 10 nM
KRas^G12R
  IC50: 15 nM
[5]
  IC50: 508 nM
[6]
  IC50: 222 nM

## CCc1c(F)ccc2cc(O)cc(-c3ncc4c(N5CC6CCC(CC6)C5)nc(OC[C@@]56CCCN5C[C@H](F)C6)nc4c3F)c12 [Example 844, 4-(4-(3-azabicyclo[3.2.2]nonan-3-yl)-8-fluoro-2-(((2R,7aS)-2-fluorotetrahydro-1H-pyrrolizin-7a(5H)-yl)methoxy)pyrido[4,3-d]pyrimidin-7-yl)-5-ethyl-6-fluoronaphthalen-2-ol]
KRas^G12D
  IC50: 103 nM
[1]
  IC50: 2900 nM
[2]
  IC50: > 10000 nM
KRas^G12V
  IC50: 35 nM
KRas^G12R
  IC50: 46 nM
[5]
  IC50: 3330 nM
[6]
  IC50: 198 nM
